What follows are molecules tested against T1, Axl (Homo sapiens, UniProt P30530) (assay: Phospho-Akt In-Cell Western Assay (ability to inhibit Axl activity)). Details: Hela cells, stimulated by Axl-antibody cross-linking, phospho-Akt chemiluminescence normalized to relative cell number.
T1 construct: endogenous in cells; host or cells: HeLa cells
T1 sequence (P30530 26-894): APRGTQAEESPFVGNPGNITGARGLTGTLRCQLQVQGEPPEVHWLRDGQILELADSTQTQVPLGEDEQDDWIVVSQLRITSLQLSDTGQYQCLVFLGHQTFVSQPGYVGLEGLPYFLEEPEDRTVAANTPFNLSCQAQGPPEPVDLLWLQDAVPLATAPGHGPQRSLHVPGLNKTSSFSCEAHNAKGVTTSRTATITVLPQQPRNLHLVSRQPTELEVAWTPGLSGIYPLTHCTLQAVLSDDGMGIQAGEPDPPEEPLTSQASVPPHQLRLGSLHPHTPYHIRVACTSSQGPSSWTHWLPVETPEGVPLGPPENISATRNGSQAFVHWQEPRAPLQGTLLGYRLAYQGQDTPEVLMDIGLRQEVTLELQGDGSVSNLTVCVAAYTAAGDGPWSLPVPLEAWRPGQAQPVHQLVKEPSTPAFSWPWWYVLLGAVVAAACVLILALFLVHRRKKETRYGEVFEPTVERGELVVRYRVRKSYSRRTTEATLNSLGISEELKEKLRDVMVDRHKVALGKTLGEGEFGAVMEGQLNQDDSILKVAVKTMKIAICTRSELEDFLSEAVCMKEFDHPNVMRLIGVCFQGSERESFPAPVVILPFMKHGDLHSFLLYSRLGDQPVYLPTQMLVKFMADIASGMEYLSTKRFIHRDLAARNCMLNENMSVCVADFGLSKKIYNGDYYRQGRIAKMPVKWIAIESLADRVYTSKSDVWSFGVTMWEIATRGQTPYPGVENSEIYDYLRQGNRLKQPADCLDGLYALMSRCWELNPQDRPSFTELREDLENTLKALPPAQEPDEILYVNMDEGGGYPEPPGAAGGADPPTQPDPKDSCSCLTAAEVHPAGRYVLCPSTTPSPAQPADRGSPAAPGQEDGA
Type: cell-based
Method: The compounds of the invention were tested in the following assay for their ability to inhibit Axl activity.
Phospho-Akt In-Cell Western Assay
• Cell culture plate: 96 well assay plate (Corning 3610), white, clear bottom, tissue-culture treated. • Cells: Hela cells. • Starvation medium: For Axl stimulation: 0.5% FCS (fetal calf serum) in DMEM, plus Axl/Fc (extracellular domain of AXL fused to immunoglobulin Fc region) (R&D, 154-AL) 500 ng/mL. • For EGF (epidermal growth factor) stimulation: 0.5% FCS in DMEM (Dulbecco's modified Eagles medium). • Poly-L-Lysine 0.01% solution (the working solution): 10 μg/ml, dilute In PBS (phosphate buffered saline). • Axl antibody cross-linking: • 1st: Mouse anti-Axl (R&D, MAB154). • 2nd: Biotin-SP-conjugated AffiniPure goat anti-mouse IgG (H+L) (Jackson ImmunoResearch #115-065-003). • Fixing buffer: 4% formaldehyde in PBS. • Wash buffer: 0.1% TritonX-100 in PBS. • Quenching buffer: 3% H2O2, 0.1% Azide in wash buffer, Azide and hydrogen peroxide (H2O2) are added fresh. • Blocking buffer: 5% BSA in TBST (tris buffered saline plus 0.1% Tween 20). • Primary antibody: Rabbit anti-human Phospho-Akt antibody (Cell Signaling 9271): 1×250 diluted in blocking buffer. • Secondary antibody: HRP (horse radish peroxidase)-conjugated Goat anti-Rabbit secondary, stock solution: Jackson ImmunoResearch (Goat anti-Rabbit HRP, #111-035-144) 1:1 diluted in glycerol, store at −20° C. The working solution: 1×2000 dilution of stock in blocking buffer. • Chemiluminescent working solution (Pierce, 37030): SuperSignal ELISA (enzyme linked immunosorbant assay) Pico Chemiluminescent substrate. • Crystal Violet solution: Stock: 2.5% Crystal violet in methanol, filtered and kept at ambient temperature. The working solution: dilute the stock 1:20 with PBS immediately before use. • 10% SDS: working solution: 5% SDS (sodium dodecylsulfate), diluted in PBS Methods: Day 1:
A 96 well TC (tissue culture treated) plate was coated with 10 μg/mL poly-L-Lysine at 37° C. for 30 min, washed twice with PBS, and air-dried for 5 minutes before cells were added. Hela cells were seeded at 10,000 cells/well and the cells were starved in 100 μL starvation medium containing Axl/Fc for 24 hrs.
The cells were pre-treated with test compounds by adding 100 μL of 2× test compound to the starvation medium on the cells. The cells were incubated at 37° C. for 1 hr before stimulation.
The cells were stimulated by Axl-antibody cross-linking as follows: A 5×1st/2nd Axl antibody mixture was made (37.5 μg/mL 1st/100 μg/mL 2nd) in starvation medium and nutated at 4° C. with thorough mixing for 1-2 hours for clustering. The resulting mix was warmed to 37° C. 50 μL of 5× Axl 1st/2nd of antibody cluster was added to the cells and the cells were incubated at 37° C. for 5 min.
After 5 minutes stimulation, the plate was flicked to remove medium and the plate was tapped onto paper towels. Formaldehyde (4.0% in PBS, 100 μL) was added to fix the cells and the cells were incubated at ambient temperature for 20 min without shaking.
The cells were washed with a plate washer buffer to remove the formaldehyde solution. The plate was flicked to removed excess wash buffer and tapped onto paper towels. Quenching buffer (100 μL) was added to each well and the cells were incubated at ambient temperature for 20 minutes without shaking.
The cells were washed with a plate washer buffer to remove the quenching buffer. Blocking buffer (100 μL) was added and the cells were incubated at ambient temperature for at least an hour with gentle shaking.
The cells were washed with a plate washer buffer and diluted primary antibody (50 μL) was added to each well (blocking buffer was added to the negative control wells instead). The plates were incubated overnight at 4° C. with gentle shaking.
The wash buffer was removed, diluted secondary antibody (100 μL) was added, and the cells were incubated at ambient temperature for 1 hour with gentle shaking. […]

`CN1CCN(c2ccc(Nc3nc(N)n(-c4ncnc5c4C4CCC5C4)n3)cc2)CC1` (stereo not shown) [Compound 20, 1-(5,8-methano-5,6,7,8-tetrahydroquinazolin-4-yl)-N^3-(4-(4-methylpiperazin-1-yl)phenyl)-1H-1,2,4-triazole-3,5-diamine] and `CN1CCN(c2ccc(Nc3nc(N)n(-c4ccc5c(n4)[C@@H]4C[C@H](C5)C4(C)C)n3)cc2)CC1` [Compound 38, 1-(7,7-dimethyl-(6R,8R)6,8-methano-5,6,7,8-tetrahydroquinoline-2-yl)-N^3-(4-(4-methylpiperazin-1-yl)phenyl)-1H-1,2,4-triazole-3,5-diamine] cannot be ordered by IC50: less than 1000 nM for the first, less than 1000 nM for the second.

`Cc1csc2c(-n3nc(Nc4cnc5c(c4)C4CCC(C5)N4C)nc3N)nc(Cl)nc12` (stereo not shown) [Compound 24, 1-(2-chloro-7-methylthieno[3,2-d]pyrimidin-4-yl)-N^3-(5,7-ethano-5,7,8-trihydro-6-methyl-1,6-naphthyridin-3-yl)-1H-1,2,4-triazole-3,5-diamine] and `Cc1csc2c(-n3nc(Nc4cnc5c(c4)C4CCC(C5)N4C)nc3N)ncnc12` (stereo not shown) [Compound 26, 1-(7-methylthieno[3,2-d]pyrimidin-4-yl)-N^3-(5,7-ethano-5,6,7,8-tetrahydro-6-methyl-1,6-naphthyridin-3-yl)-1H-1,2,4-triazole-3,5-diamine] cannot be ordered by IC50: less than 1000 nM for the first, less than 1000 nM for the second.

`Nc1nc(Nc2ccc(N3CCC(N4CCCC4)CC3)c(F)c2)nn1-c1cc(-c2ccccc2)c2c(n1)C1CCN2CC1` [Compound 25, 1-(1,4-ethano-8-phenyl-1,2,3,4-tetrahydro-1,5-naphthyridin-6-yl)-N^3-(3-fluoro-4-(4-(pyrrolidin-1-yl)piperidin-1-yl)phenyl)-1H-1,2,4-triazole-3,5-diamine] and `Nc1nc(Nc2ccc(N3CCC(N4CCCC4)CC3)c(F)c2)nn1-c1cc(-c2ccncc2)c2c(n1)C1CCN2CC1` [Compound 32, 1-(1,4-ethano-8-pyridin-4-yl-1,2,3,4-tetrahydro-1,5-naphthyridin-6-yl)-N^3-(3-fluoro-4-(4-(pyrrolidin-1-yl)piperidin-1-yl)phenyl)-1H-1,2,4-triazole-3,5-diamine] cannot be ordered by IC50: less than 1000 nM for the first, less than 1000 nM for the second.

`Cc1csc2c(-n3nc(Nc4cnc5c(c4)CN4CCC5CC4)nc3N)ncnc12` [Compound 27, 1-(7-methylthieno[3,2-d]pyrimidin-4-yl)-N^3-(6,9-ethano-6,7,8,9-tetrahydro-5H-pyrido[3,2-c]azepin-3-yl)-1H-1,2,4-triazole-3,5-diamine] and `CN1CCN(c2ccc(Nc3nc(N)n(-c4cc(-c5ccccc5)c5c(n4)C4CCN5CC4)n3)cn2)CC1` [Compound 28, 1-(1,4-ethano-8-phenyl-1,2,3,4-tetrahydro-1,5-naphthyridin-6-yl)-N^3-(2-(4-methylpiperazin-1-yl)pyridine-5-yl)-1H-1,2,4-triazole-3,5-diamine] cannot be ordered by IC50: less than 1000 nM for the first, less than 1000 nM for the second.

`Nc1nc(Nc2ccc(N3CCC(N4CCCC4)CC3)nc2)nn1-c1cc(-c2ccccc2)c2c(n1)C1CCN2CC1` [Compound 29, 1-(1,4-ethano-8-phenyl-1,2,3,4-tetrahydro-1,5-naphthyridin-6-yl)-N^3-(2-(4-(pyrrolidin-1-yl)piperidin-1-yl)pyridine-5-yl)-1H-1,2,4-triazole-3,5-diamine] and `Nc1nc(Nc2ccc(N3CCN(C4CCCCC4)CC3)c(F)c2)nn1-c1cc(-c2ccccc2)c2c(n1)C1CCN2CC1` [Compound 37, 1-(1,4-ethano-8-phenyl-1,2,3,4-tetrahydro-1,5-naphthyridin-6-yl)-N^3-(3-fluoro-4-(4-cyclohexylpiperazin-1-yl)phenyl)-1H-1,2,4-triazole-3,5-diamine] cannot be ordered by IC50: less than 1000 nM for the first, less than 1000 nM for the second.

`Nc1nc(Nc2ccc(N3CCC(N4CCCC4)CC3)c(F)c2)nn1-c1cc(-c2cccs2)c2c(n1)C1CCN2CC1` [Compound 30, 1-(1,4-ethano-8-thiophen-2-yl-1,2,3,4-tetrahydro-1,5-naphthyridin-6-yl)-N^3-(3-fluoro-4-(4-(pyrrolidin-1-yl)piperidin-1-yl)phenyl)-1H-1,2,4-triazole-3,5-diamine] and `Nc1nc(Nc2ccc(N3CCN(C4CC5CCC4C5)CC3)c(F)c2)nn1-c1cc(-c2ccccc2)c2c(n1)C1CCN2CC1` (stereo not shown) [Compound 36, 1-(1,4-ethano-8-phenyl-1,2,3,4-tetrahydro-1,5-naphthyridin-6-yl)-N^3-(3-fluoro-4-(4-bicyclo[2.2.1]heptan-2-ylpiperazin-1-yl)phenyl)-1H-1,2,4-triazole-3,5-diamine] cannot be ordered by IC50: less than 1000 nM for the first, less than 1000 nM for the second.

Compared with `Nc1nc(Nc2ccc(N3CCNC(C(=O)O)C3)c(F)c2)nn1-c1cc(-c2ccccc2)c2c(n1)C1CCN2CC1` (stereo not shown) [Compound 33, 1-(1,4-ethano-8-phenyl-1,2,3,4-tetrahydro-1,5-naphthyridin-6-yl)-N^3-(3-fluoro-4-(3-carboxypiperazin-1-yl)phenyl)-1H-1,2,4-triazole-3,5-diamine], `CN1CCN(c2ccc(Nc3nc(N)n(-c4cc(-c5ccccc5)c5c(n4)C4CCN5CC4)n3)cc2)CC1` [Compound 35, 1-(1,4-ethano-8-phenyl-1,2,3,4-tetrahydro-1,5-naphthyridin-6-yl)-N^3-(4-(4-methylpiperazin-1-yl)phenyl)-1H-1,2,4-triazole-3,5-diamine] is lower in IC50: 1000 to 10000 nM for the first, less than 1000 nM for the second. The second is the more potent here.

First: CC1(C)[C@H]2Cc3ccc(-n4nc(Nc5ccc(N6CCN(C7CC8CCC7C8)CC6)c(F)c5)nc4N)nc3[C@@H]1C2 (stereo partly drawn) [Compound 39, 1-(7,7-dimethyl-(6R,8R)6,8-methano-5,6,7,8-tetrahydroquinoline-2-yl)-N^3-(3-fluoro-4-(4-bicyclo[2.2.1]heptan-2-ylpiperazin-1-yl)phenyl)-1H-1,2,4-triazole-3,5-diamine]
Second: Nc1nc(Nc2ccc(N3CCC(N4CCCC4)CC3)c(F)c2)nn1-c1nnc(-c2ccccc2)c2c1C1CCC2C1 (stereo not shown) [Compound 40, 1-(5,8-methano-1-phenyl-5,6,7,8-tetrahydrophthalazine-4-yl)-N^3-(3-fluoro-4-(4-(pyrrolidin-1-yl)piperidin-1-yl)phenyl)-1H-1,2,4-triazole-3,5-diamine]
The IC50 of the first is higher: greater than 20000 nM for the first, less than 1000 nM for the second.
